The source of these data is US9561284B2, “Pharmaceutical composition containing a block copolymer bound to a boronic acid compound” (NANOCARRIER CO., LTD., priority 2011, dated 2017).

Structures are written as SMILES.

This series is described as follows: Drug efficacy test: body weight of the mice. It is filed as in vivo, male nude mice (Balb nu/nu). The procedure: Human prostate cancer PC-3 cells were inoculated under the dorsal skin of male nude mice (Balb nu/nu, 5-week-old, CHARLES RIVER LABORATORIES JAPAN, INC.) at 3×10^6 cells per mouse. At the time when the tumor volume reached 90.7±4.5 mm^3 (mean±standard error (SE)) (on day 10 after the inoculation), the drug was administered into the tail vein. […] It should be noted that the dosage is the amount in terms of the drug for each of the groups. […] It should be noted that, when the dosage of the bortezomib aqueous solution was set to more than 1 mg/kg, toxicity due to the active pharmaceutical ingredient became remarkable and the amount of body weight loss reached a severe level (e.g., a loss of 20% or more).

Under “dosage of more than 1 mg/kg, toxicity became remarkable”, `CC(C)C[C@H](NC(=O)[C@H](Cc1ccccc1)NC(=O)c1cnccn1)B(O)O` [Comparative Example 2, bortezomib] showed a Body weight loss of at least 20%. For the same compound, for the setting “tail vein, 1 mg/kg”, the “Relative body weight 7 days after administration vs administration date” value is “no significant difference in mouse body weight”.
